Results: patent US9662327B2 (AGIOS PHARMACEUTICALS, INC, priority 2011, dated 2017)
Like-named read-outs stand apart in the source and are kept apart here.

Target: IDH1 R132H (Homo sapiens (Human), UniProt O75874, R132H)
Experiment: Assays for IDH1 R132H Inhibitors (NADPH/aKG, resazurin detection)
Assay type: biochemical
Settings: IDH1 R132H enzyme
Procedure, shortened: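 Substrate mix held 8 uM NADPH plus 2 mM aKG; buffer was 20 mM Tris pH 7.5 with 150 mM NaCl, 10 mM MgCl2, 0.03% BSA. After 50 min room-temperature reaction, NADPH remaining was detected with 30 μM resazurin mix over 5 min.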

[1] = Table 2, read-out: IDHR132H Activity

IDH1 R132H, sequence (O75874 whole entry R132H): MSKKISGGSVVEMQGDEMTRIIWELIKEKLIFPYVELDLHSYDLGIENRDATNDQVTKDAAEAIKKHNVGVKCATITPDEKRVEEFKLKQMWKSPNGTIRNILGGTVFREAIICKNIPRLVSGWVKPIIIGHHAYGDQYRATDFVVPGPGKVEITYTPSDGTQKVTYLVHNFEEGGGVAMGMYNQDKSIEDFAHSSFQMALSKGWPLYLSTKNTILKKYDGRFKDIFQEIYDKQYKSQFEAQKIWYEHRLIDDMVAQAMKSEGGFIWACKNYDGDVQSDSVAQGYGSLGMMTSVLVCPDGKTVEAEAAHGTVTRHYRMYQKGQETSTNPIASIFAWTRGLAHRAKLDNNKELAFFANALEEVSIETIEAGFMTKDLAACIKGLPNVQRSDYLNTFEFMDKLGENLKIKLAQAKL

IC50 [1] [µM] | IC50 (Table 3, read-out: R132H IC50) [µM] | Compound
1 to 10 |  | CC1(C)Cc2c(C#N)c(N3CCN(C(=O)c4ccoc4)C(C)(C)C3)nc(C3CC3)c2CO1 [Compound 318, 8-cyclopropyl-6-(4-(furan-3-carbonyl)-3,3-dimethylpiperazin-1-yl)-3,3-dimethyl-3,4-dihydro-1H-pyrano[3,4-c]pyridine-5-carbonitrile]
1 to 10 |  | CC(C)[C@@H]1CN(c2nc(C3CC3)c3c(c2C#N)CC(C)(C)OC3)CCN1C(=O)NC1CC1 [Compound 398, (R)-4-(5-cyano-8-cyclopropyl-3,3-dimethyl-3,4-dihydro-1H-pyrano[3,4-c]pyridin-6-yl)-N-cyclopropyl-2-isopropylpiperazine-1-carboxamide]
< 0.5 |  | CC[C@@H]1CN(c2nc(C(C)C)c3c(c2C#N)CC(C)(C)OC3)CCN1C(=O)c1ccoc1 [Compound 205, (R)-6-(3-ethyl-4-(furan-3-carbonyl)piperazin-1-yl)-8-isopropyl-3,3-dimethyl-3,4-dihydro-1H-pyrano[3,4-c]pyridine-5-carbonitrile]
1 to 10 |  | COC(=O)CN1CCN(c2nc(C3CC3)c3c(c2C#N)CC(C)(C)OC3)C[C@H]1C(C)C [Compound 397, (R)-methyl 2-(4-(5-cyano-8-cyclopropyl-3,3-dimethyl-3,4-dihydro-1H-pyrano[3,4-c]pyridin-6-yl)-2-isopropylpiperazin-1-yl)acetate]
1 to 10 |  | CC(C)[C@@H]1CN(c2nc(C3CC3)c3c(c2C#N)CC(C)(C)OC3)CCN1C(=O)CC(=O)O [Compound 418, (R)-3-(4-(5-cyano-8-cyclopropyl-3,3-dimethyl-3,4-dihydro-1H-pyrano[3,4-c]pyridin-6-yl)-2-isopropylpiperazin-1-yl)-3-oxopropanoic acid]
1 to 10 |  | CC(C)[C@@H]1CN(c2nc(C3CC3)c3c(c2C#N)CC(C)(C)OC3)CCN1C(=O)Cc1ccccc1F [Compound 228]
 | 0.5 to 1 | CC(C)[C@@H]1CN(c2nc(C3CC3)c3c(c2C#N)CC(C)(C)OC3)CCN1C(=O)CCc1nnco1 [Compound 448, (R)-6-(4-(3-(1,3,4-oxadiazol-2-yl)propanoyl)-3-isopropylpiperazin-1-yl)-8-cyclopropyl-3,3-dimethyl-3,4-dihydro-1H-pyrano[3,4-c]pyridine-5-carbonitrile]
1 to 10 |  | CC(C)[C@@H]1CN(c2nc(C3CC3)c3c(c2C#N)CC(C)(C)OC3)CCN1C(=O)Nc1ccc(C#N)cc1 [Compound 303, (R)-4-(5-cyano-8-cyclopropyl-3,3-dimethyl-3,4-dihydro-1H-pyrano[3,4-c]pyridin-6-yl)-N-(4-cyanophenyl)-2-isopropylpiperazine-1-carboxamide]
0.5 to 1 |  | Cc1oncc1C(=O)N1CCN(c2nc(C(C)C)c3c(c2C#N)CC(C)(C)OC3)C[C@H]1C [Compound 217, (R)-8-isopropyl-3,3-dimethyl-6-(3-methyl-4-(5-methylisoxazole-4-carbonyl)piperazin-1-yl)-3,4-dihydro-1H-pyrano[3,4-c]pyridine-5-carbonitrile]
1 to 10 |  | Cc1nc2ccccn2c1C(=O)N1CCN(c2nc(C(C)C)c3c(c2C#N)CC(C)(C)OC3)C[C@H]1C [Compound 220, (R)-8-isopropyl-3,3-dimethyl-6-(3-methyl-4-(2-methylimidazo[1,2-a]pyridine-3-carbonyl)piperazin-1-yl)-3,4-dihydro-1H-pyrano[3,4-c]pyridine-5-carbonitrile]
< 0.5 |  | CC[C@@H]1CN(c2nc(C(C)C)c3c(c2C#N)CC(C)(C)OC3)CCN1C(=O)Cc1cccs1 [Compound 206, (R)-6-(3-ethyl-4-(2-(thiophen-2-yl)acetyl)piperazin-1-yl)-8-isopropyl-3,3-dimethyl-3,4-dihydro-1H-pyrano[3,4-c]pyridine-5-carbonitrile]
0.5 to 1 |  | CC(C)c1nc(N2CCN(C(=O)Cc3cccs3)[C@H](C)C2)c(C#N)c2c1COC(C)(C)C2 [Compound 158, (R)-8-isopropyl-3,3-dimethyl-6-(3-methyl-4-(2-(thiophen-2-yl)acetyl)piperazin-1-yl)-3,4-dihydro-1H-pyrano[3,4-c]pyridine-5-carbonitrile]
< 0.5 |  | CC(C)[C@@H]1CN(c2nc(C3CC3)c3c(c2C#N)CC(C)(C)OC3)CCN1C(=O)Cc1cccnc1 [Compound 265]

Further lines, the molecule ahead of its results:

Compound | IC50 [1] [µM] | IC50 (Table 3, read-out: R132H IC50) [µM]
C[C@@H]1CN(c2nc(C3CCCCC3)c3c(c2C#N)CCOC3)CCN1C(=O)CCl [Compound 340, (R)-6-(4-(2-chloroacetyl)-3-methylpiperazin-1-yl)-8-cyclohexyl-3,4-dihydro-1H-pyrano[3,4-c]pyridine-5-carbonitrile] | < 0.5 | 
Cc1occc1C(=O)N1CCN(c2nc(C3CCCCC3)c3c(c2C#N)CCOC3)C[C@H]1C [Compound 184, (R)-8-cyclohexyl-6-(3-methyl-4-(2-methylfuran-3-carbonyl)piperazin-1-yl)-3,4-dihydro-1H-pyrano[3,4-c]pyridine-5-carbonitrile] | 1 to 10 | 
C[C@@H]1CN(c2nc(C3CCCCC3)c3c(c2C#N)CCOC3)CCN1C(=O)c1ccco1 [Compound 162, (R)-8-cyclohexyl-6-(4-(furan-2-carbonyl)-3-methylpiperazin-1-yl)-3,4-dihydro-1H-pyrano[3,4-c]pyridine-5-carbonitrile] | 1 to 10 | 
CC(C)[C@@H]1CN(c2nc(C3CC3)c3c(c2C#N)CC(C)(C)OC3)CCN1S(=O)(=O)c1ccc(Cl)s1 [Compound 285, (R)-6-(4-(5-chlorothiophen-2-ylsulfonyl)-3-isopropylpiperazin-1-yl)-8-cyclopropyl-3,3-dimethyl-3,4-dihydro-1H-pyrano[3,4-c]pyridine-5-carbonitrile] | 1 to 10 | 
CC(C)[C@@H]1CN(c2nc(C3CC3)c3c(c2C#N)CC(C)(C)OC3)CCN1S(=O)(=O)c1cccs1 [Compound 284, (R)-8-cyclopropyl-6-(3-isopropyl-4-(thiophen-2-ylsulfonyl)piperazin-1-yl)-3,3-dimethyl-3,4-dihydro-1H-pyrano[3,4-c]pyridine-5-carbonitrile] | 1 to 10 | 
COCCC(=O)N1C[C@H](C)N(c2nc(C3CC3)c3c(c2C#N)CC(C)(C)OC3)C[C@H]1C [Compound 310, 8-cyclopropyl-6-((2S,5R)-4-(3-methoxypropanoyl)-2,5-dimethylpiperazin-1-yl)-3,3-dimethyl-3,4-dihydro-1H-pyrano[3,4-c]pyridine-5-carbonitrile] | 1 to 10 | 
CCCCNC(=O)C(=O)CCC(=O)N1CCN(c2nc(C3CC3)c3c(c2C#N)CC(C)(C)OC3)C[C@H]1C(C)C [Compound 467, (R)—N-butyl-5-(4-(5-cyano-8-cyclopropyl-3,3-dimethyl-3,4-dihydro-1H-pyrano[3,4-c]pyridin-6-yl)-2-isopropylpiperazin-1-yl)-2,5-dioxopentanamide] |  | 0.5 to 1
C[C@@H]1CN(c2nc(C3CCCC3)c3c(c2C#N)CCOC3)C[C@H](C)N1C(=O)NC1CCCCC1 [Compound 127, (2S,6R)-4-(5-cyano-8-cyclopentyl-3,4-dihydro-1H-pyrano[3,4-c]pyridin-6-yl)-N-cyclohexyl-2,6-dimethylpiperazine-1-carboxamide] | 1 to 10 | 
Cc1cc(C(=O)N2CCN(c3nc(C4CCCCC4)c4c(c3C#N)CCOC4)CC2)c(C)o1 [Compound 121, 8-cyclohexyl-6-(4-(2,5-dimethylfuran-3-carbonyl)piperazin-1-yl)-3,4-dihydro-1H-pyrano[3,4-c]pyridine-5-carbonitrile] | 1 to 10 | 
